Test results from patent publication US20120309750A1, “5-MEMBERED HETEROCYCLE DERIVATIVES AND MANUFACTURING PROCESS THEREOF” (ILDONG PHARM CO., LTD., priority 2010, published 2012).

Legend:
yeast HSP90 = yeast HSP90 (Saccharomyces cerevisiae, UniProt P02829); test: Hsp90 ATPase assay (malachite green); type: biochemical
Procedure: (§1) For present invention, the ATPase activity of yeast HSP90 was measured using malachite green assay. Formula I compounds for primary antitumoral activity were treated in human colorectal cancer cells (HCT116) showing increased expression levels of HSP90 client protein and cotoxicity IC50 values was measured as a result.

[1] = system: human colorectal cancer cells (HCT116); test: Growth inhibition assay (cytotoxicity) in HCT116; type: cell-based; conditions: HCT-116
Procedure: as §1

yeast HSP90, sequence (P02829 whole entry): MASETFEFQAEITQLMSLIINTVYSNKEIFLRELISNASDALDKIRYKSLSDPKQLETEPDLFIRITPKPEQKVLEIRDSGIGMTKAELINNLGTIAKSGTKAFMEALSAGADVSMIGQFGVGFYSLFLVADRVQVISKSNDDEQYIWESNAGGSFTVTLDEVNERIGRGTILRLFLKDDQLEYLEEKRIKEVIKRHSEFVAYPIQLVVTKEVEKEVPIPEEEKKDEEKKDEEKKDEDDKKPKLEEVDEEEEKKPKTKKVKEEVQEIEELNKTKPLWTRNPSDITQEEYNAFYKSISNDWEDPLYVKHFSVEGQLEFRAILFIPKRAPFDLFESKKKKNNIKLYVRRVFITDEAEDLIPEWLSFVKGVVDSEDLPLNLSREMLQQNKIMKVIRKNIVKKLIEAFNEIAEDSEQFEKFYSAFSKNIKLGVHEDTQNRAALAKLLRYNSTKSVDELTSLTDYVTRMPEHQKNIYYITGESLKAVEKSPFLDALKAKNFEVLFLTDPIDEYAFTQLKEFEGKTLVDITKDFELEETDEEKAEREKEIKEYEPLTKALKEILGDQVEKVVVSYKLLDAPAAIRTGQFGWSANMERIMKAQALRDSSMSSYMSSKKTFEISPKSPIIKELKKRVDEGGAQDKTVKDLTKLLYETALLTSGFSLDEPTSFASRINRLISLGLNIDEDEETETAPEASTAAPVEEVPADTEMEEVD

Structure (SMILES) | IC50 (yeast HSP90) | IC50 [1]
CCNC(=O)c1noc(-c2cc(C(C)C)c(O)cc2O)c1-c1noc(N(C)C)n1 [Compound I-72, 5-(2,4-Dihydroxy-5-isopropylphenyl)-4-(5-(dimethylamino)-1,2,4-oxadiazol-3-yl)-N-ethylisoxazole-3-carboxamide] | < 500 nM | < 500 nM
CCNC(=O)c1noc(-c2cc(C(C)C)c(O)cc2O)c1-c1noc(N2CCOCC2)n1 [Compound I-73, 5-(2,4-Dihydroxy-5-isopropylphenyl)-N-ethyl-4-(5-morpholino-1,2,4-oxadiazol-3-yl)isoxazole-3-carboxamide] | 500 to 1000 nM | < 500 nM
CCNC(=O)c1noc(-c2cc(C(C)C)c(O)cc2O)c1-c1noc(C(=O)N(CC)CC)n1 [Compound I-74, 3-(5-(2,4-Dihydroxy-5-isopropylphenyl)-3-(ethylcarbamoyl)isoxazol-4-yl)-N,N-diethyl-1,2,4-oxadiazole-5-carboxamide] | 500 to 1000 nM | 500 to 1000 nM
CCNC(=O)c1noc(-c2cc(C(C)C)c(O)cc2O)c1-c1noc(COC)n1 [Compound I-75, 5-(2,4-Dihydroxy-5-isopropylphenyl)-N-ethyl-4-(5-(methoxymethyl)-1,2,4-oxadiazol-3-yl)isoxazole-3-carboxamide] | < 500 nM | < 500 nM
CCNC(=O)c1noc(-c2cc(C(C)C)c(O)cc2O)c1-c1noc(N(CC)CC)n1 [Compound I-76, 4-(5-(Diethylamino)-1,2,4-oxadiazol-3-yl)-5-(2,4-dihydroxy-5-isopropylphenyl)-N-ethylisoxazole-3-carboxamide] | < 500 nM | < 500 nM
CCNC(=O)c1noc(-c2cc(C(C)C)c(O)cc2O)c1-c1noc(-c2cccs2)n1 [Compound I-77, 5-(2,4-Dihydroxy-5-isopropylphenyl)-N-ethyl-4-(5-(thiophen-2-yl)-1,2,4-oxadiazol-3-yl)isoxazole-3-carboxamide] | 500 to 1000 nM | < 500 nM
CCNC(=O)c1noc(-c2cc(C(C)C)c(O)cc2O)c1-c1noc(N)n1 [Compound I-78, 4-(5-Amino-1,2,4-oxadiazol-3-yl)-5-(2,4-dihydroxy-5-isopropylphenyl)-N-ethylisoxazole-3-carboxamide] | < 500 nM | < 500 nM
CCNC(=O)c1noc(-c2cc(C(C)C)c(O)cc2O)c1-c1noc(NC)n1 [Compound I-79, 5-(2,4-Dihydroxy-5-isopropylphenyl)-N-ethyl-4-(5-(methylamino)-1,2,4-oxadiazol-3-yl)isoxazole-3-carboxamide] | 500 to 1000 nM | < 500 nM
CCNC(=O)c1noc(-c2cc(C(C)C)c(O)cc2O)c1-c1noc(O)n1 [Compound I-80, 5-(2,4-Dihydroxy-5-isopropylphenyl)-N-ethyl-4-(5-hydroxy-1,2,4-oxadiazol-3-yl)isoxazole-3-carboxamide] | > 1000 nM | > 1000 nM
CCNC(=O)c1noc(-c2cc(C(C)C)c(O)cc2O)c1-c1noc(CO)n1 [Compound I-81, 5-(2,4-Dihydroxy-5-isopropylphenyl)-N-ethyl-4-(5-(hydroxymethyl)-1,2,4-oxadiazol-3-yl)isoxazole-3-carboxamide] | 500 to 1000 nM | < 500 nM
CCNC(=O)c1noc(-c2cc(C(C)C)c(O)cc2O)c1-c1noc(S)n1 [Compound I-82, 5-(2,4-Dihydroxy-5-isopropylphenyl)-N-ethyl-4-(5-mercapto-1,2,4-oxadiazol-3-yl)isoxazole-3-carboxamide] | 500 to 1000 nM | 500 to 1000 nM
CCNC(=O)c1noc(-c2cc(C(C)C)c(O)cc2O)c1-c1noc([C@H](C)O)n1 [Compound I-83, (S)-5-(2,4-Dihydroxy-5-isopropylphenyl)-N-ethyl-4-(5-(1-hydroxyethyl)-1,2,4-oxadiazol-3-yl)isoxazole-3-carboxamide] | 500 to 1000 nM | < 500 nM
CCNC(=O)c1noc(-c2cc(C(C)C)c(O)cc2O)c1-c1noc(-c2ccc(OC)cc2)n1 [Compound I-84, 5-(2,4-Dihydroxy-5-isopropylphenyl)-N-ethyl-4-(5-(4-methoxyphenyl)-1,2,4-oxadiazol-3-yl)isoxazole-3-carboxamide] | 500 to 1000 nM | 500 to 1000 nM
CCNC(=O)c1noc(-c2cc(C(C)C)c(O)cc2O)c1-c1noc(-c2ccc([N+](=O)[O-])cc2)n1 [Compound I-85, 5-(2,4-Dihydroxy-5-isopropylphenyl)-N-ethyl-4-(5-(4-nitrophenyl)-1,2,4-oxadiazol-3-yl)isoxazole-3-carboxamide] | < 500 nM | < 500 nM
CCNC(=O)c1noc(-c2cc(C(C)C)c(O)cc2O)c1-c1noc(OC)n1 [Compound I-86, 5-(2,4-Dihydroxy-5-isopropylphenyl)-N-ethyl-4-(5-methoxy-1,2,4-oxadiazol-3-yl)isoxazole-3-carboxamide] | 500 to 1000 nM | < 500 nM
CCNC(=O)c1noc(-c2cc(C(C)C)c(O)cc2O)c1-c1noc(SC)n1 [Compound I-87, 5-(2,4-Dihydroxy-5-isopropylphenyl)-N-ethyl-4-(5-(methylthio)-1,2,4-oxadiazol-3-yl)isoxazole-3-carboxamide] | < 500 nM | 500 to 1000 nM

Structure (SMILES) | IC50 (yeast HSP90) | IC50 [1]
CCNC(=O)c1noc(-c2cc(C(C)C)c(O)cc2O)c1-c1noc(C2CCCC2)n1 [Compound I-88, 4-(5-Cyclopentyl-1,2,4-oxadiazol-3-yl)-5-(2,4-dihydroxy-5-isopropylphenyl)-N-ethylisoxazole-3-carboxamide] | < 500 nM | < 500 nM
CCNC(=O)c1noc(-c2cc(C(C)C)c(O)cc2O)c1-c1noc(C2CCCCC2)n1 [Compound I-89, 4-(5-Cyclohexyl-1,2,4-oxadiazol-3-yl)-5-(2,4-dihydroxy-5-isopropylphenyl)-N-ethylisoxazole-3-carboxamide] | 500 to 1000 nM | < 500 nM
CCNC(=O)c1noc(-c2cc(C(C)C)c(O)cc2O)c1-c1noc(-c2ccc(OCC)cc2)n1 [Compound I-90, 5-(2,4-Dihydroxy-5-isopropylphenyl)-4-(5-(4-ethoxyphenyl)-1,2,4-oxadiazol-3-yl)-N-ethylisoxazole-3-carboxamide] | 500 to 1000 nM | > 1000 nM
CCNC(=O)c1noc(-c2cc(C(C)C)c(O)cc2O)c1-c1noc(C(O)CCl)n1 (stereo not shown) [Compound I-91, 4-(5-(2-Chloro-1-hydroxyethyl)-1,2,4-oxadiazol-3-yl)-5-(2,4-dihydroxy-5-isopropylphenyl)-N-ethylisoxazole-3-carboxamide] | 500 to 1000 nM | < 500 nM
CCNC(=O)c1noc(-c2cc(C(C)C)c(O)cc2O)c1-c1noc(CN2CCOCC2)n1 [Compound I-92, 5-(2,4-Dihydroxy-5-isopropylphenyl)-N-ethyl-4-(5-(morpholinomethyl)-1,2,4-oxadiazol-3-yl)isoxazole-3-carboxamide] | 500 to 1000 nM | < 500 nM
CCNC(=O)c1noc(-c2cc(C(C)C)c(O)cc2O)c1-c1noc(CN(C)C)n1 [Compound I-93, 5-(2,4-Dihydroxy-5-isopropylphenyl)-4-(5-((dimethylamino)methyl)-1,2,4-oxadiazol-3-yl)-N-ethylisoxazole-3-carboxamide] | 500 to 1000 nM | < 500 nM
CCNC(=O)c1noc(-c2cc(C(C)C)c(O)cc2O)c1-c1noc(CN2CCCCC2)n1 [Compound I-94, 5-(2,4-Dihydroxy-5-isopropylphenyl)-N-ethyl-4-(5-(piperidin-1-ylmethyl)-1,2,4-oxadiazol-3-yl)isoxazole-3-carboxamide] | < 500 nM | < 500 nM
CCNC(=O)c1noc(-c2cc(C(C)C)c(O)cc2O)c1-c1noc(CN2CCCC2)n1 [Compound I-95, 5-(2,4-Dihydroxy-5-isopropylphenyl)-N-ethyl-4-(5-(pyrrolidin-1-ylmethyl)-1,2,4-oxadiazol-3-yl)isoxazole-3-carboxamide] | 500 to 1000 nM | < 500 nM
CCNC(=O)c1noc(-c2cc(C(C)C)c(O)cc2O)c1-c1cc[nH]n1 [Compound I-96, 5-(2,4-Dihydroxy-5-isopropylphenyl)-N-ethyl-4-(1H-pyrazol-3-yl)isoxazole-3-carboxamide] | 500 to 1000 nM | < 500 nM
CCNC(=O)c1noc(-c2cc(C(C)C)c(O)cc2O)c1-c1ccn(C)n1 [Compound I-97, 5-(2,4-Dihydroxy-5-isopropylphenyl)-N-ethyl-4-(1-methyl-1H-pyrazol-3-yl)isoxazole-3-carboxamide] | 500 to 1000 nM | < 500 nM
CCNC(=O)c1noc(-c2cc(C(C)C)c(O)cc2O)c1-c1ccnn1C [Compound I-98, 5-(2,4-Dihydroxy-5-isopropylphenyl)-N-ethyl-4-(1-methyl-1H-pyrazol-5-yl)isoxazole-3-carboxamide] | < 500 nM | < 500 nM
CCNC(=O)c1noc(-c2cc(C(C)C)c(O)cc2O)c1-c1ccn(CC)n1 [Compound I-99, 5-(2,4-Dihydroxy-5-isopropylphenyl)-N-ethyl-4-(1-ethyl-1H-pyrazol-3-yl)isoxazole-3-carboxamide] | 500 to 1000 nM | < 500 nM
CCNC(=O)c1noc(-c2cc(C(C)C)c(O)cc2O)c1-c1ccn(C(C)C)n1 [Compound I-100, 5-(2,4-Dihydroxy-5-isopropylphenyl)-N-ethyl-4-(1-isopropyl-1H-pyrazol-3-yl)isoxazole-3-carboxamide] | 500 to 1000 nM | < 500 nM
CCCn1ccc(-c2c(C(=O)NCC)noc2-c2cc(C(C)C)c(O)cc2O)n1 [Compound I-101, 5-(2,4-Dihydroxy-5-isopropylphenyl)-N-ethyl-4-(1-propyl-1H-pyrazol-3-yl)isoxazole-3-carboxamide] | 500 to 1000 nM | < 500 nM
CCNC(=O)c1noc(-c2cc(C(C)C)c(O)cc2O)c1-c1cnn(C)c1 [Compound I-102, 5-(2,4-Dihydroxy-5-isopropylphenyl)-N-ethyl-4-(1-methyl-1H-pyrazol-4-yl)isoxazole-3-carboxamide] | < 500 nM | < 500 nM
CCNC(=O)c1noc(-c2cc(C(C)C)c(O)cc2O)c1-c1cn[nH]c1 [Compound I-103, 5-(2,4-Dihydroxy-5-isopropylphenyl)-N-ethyl-4-(1H-pyrazol-4-yl)isoxazole-3-carboxamide] | < 500 nM | < 500 nM
